The target in the first assay is PRC2 complex (EZH2 Y641F/EED/SUZ12/RbAp48/AEBP2) (Homo sapiens (Human), UniProt Q15910, Y641F). Description: Activity of a compound to PRC2 complex (EZH2 Y641F), HTRF.
Chain of PRC2 complex (EZH2 Y641F/EED/SUZ12/RbAp48/AEBP2) (Q15910 whole entry Y641F): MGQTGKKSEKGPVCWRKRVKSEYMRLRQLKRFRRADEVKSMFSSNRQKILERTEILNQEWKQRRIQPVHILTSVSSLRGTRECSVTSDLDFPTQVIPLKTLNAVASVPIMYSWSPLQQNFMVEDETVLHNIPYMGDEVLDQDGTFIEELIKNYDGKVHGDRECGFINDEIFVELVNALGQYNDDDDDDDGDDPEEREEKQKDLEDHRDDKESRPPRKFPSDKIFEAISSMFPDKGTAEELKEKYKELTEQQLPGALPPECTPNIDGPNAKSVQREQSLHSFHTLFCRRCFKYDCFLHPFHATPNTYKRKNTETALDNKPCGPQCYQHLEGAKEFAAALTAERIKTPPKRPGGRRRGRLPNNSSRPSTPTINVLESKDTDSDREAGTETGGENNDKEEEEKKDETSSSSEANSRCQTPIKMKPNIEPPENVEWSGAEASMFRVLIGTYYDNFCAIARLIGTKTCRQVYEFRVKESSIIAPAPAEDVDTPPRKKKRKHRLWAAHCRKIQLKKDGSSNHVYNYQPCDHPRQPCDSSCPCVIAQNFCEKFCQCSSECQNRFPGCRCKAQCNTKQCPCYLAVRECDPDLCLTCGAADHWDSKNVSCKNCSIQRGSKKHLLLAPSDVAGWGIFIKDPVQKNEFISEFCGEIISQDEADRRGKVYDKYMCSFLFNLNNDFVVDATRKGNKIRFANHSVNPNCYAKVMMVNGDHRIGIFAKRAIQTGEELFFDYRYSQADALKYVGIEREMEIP
Chain of PRC2 complex (EZH2 Y641F/EED/SUZ12/RbAp48/AEBP2) (O75530 whole entry partner): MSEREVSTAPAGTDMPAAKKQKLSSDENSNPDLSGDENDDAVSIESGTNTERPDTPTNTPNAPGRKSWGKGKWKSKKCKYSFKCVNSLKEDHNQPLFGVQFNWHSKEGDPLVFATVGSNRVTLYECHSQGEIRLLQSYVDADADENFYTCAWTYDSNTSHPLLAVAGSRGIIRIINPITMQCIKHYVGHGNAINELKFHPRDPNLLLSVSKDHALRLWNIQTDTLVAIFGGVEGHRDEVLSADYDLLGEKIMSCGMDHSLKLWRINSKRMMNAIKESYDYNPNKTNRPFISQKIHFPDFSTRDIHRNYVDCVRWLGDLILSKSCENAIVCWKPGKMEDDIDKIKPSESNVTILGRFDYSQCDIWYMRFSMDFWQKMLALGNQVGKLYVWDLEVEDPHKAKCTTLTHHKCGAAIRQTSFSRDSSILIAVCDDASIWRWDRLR
Chain of PRC2 complex (EZH2 Y641F/EED/SUZ12/RbAp48/AEBP2) (Q15022 whole entry partner): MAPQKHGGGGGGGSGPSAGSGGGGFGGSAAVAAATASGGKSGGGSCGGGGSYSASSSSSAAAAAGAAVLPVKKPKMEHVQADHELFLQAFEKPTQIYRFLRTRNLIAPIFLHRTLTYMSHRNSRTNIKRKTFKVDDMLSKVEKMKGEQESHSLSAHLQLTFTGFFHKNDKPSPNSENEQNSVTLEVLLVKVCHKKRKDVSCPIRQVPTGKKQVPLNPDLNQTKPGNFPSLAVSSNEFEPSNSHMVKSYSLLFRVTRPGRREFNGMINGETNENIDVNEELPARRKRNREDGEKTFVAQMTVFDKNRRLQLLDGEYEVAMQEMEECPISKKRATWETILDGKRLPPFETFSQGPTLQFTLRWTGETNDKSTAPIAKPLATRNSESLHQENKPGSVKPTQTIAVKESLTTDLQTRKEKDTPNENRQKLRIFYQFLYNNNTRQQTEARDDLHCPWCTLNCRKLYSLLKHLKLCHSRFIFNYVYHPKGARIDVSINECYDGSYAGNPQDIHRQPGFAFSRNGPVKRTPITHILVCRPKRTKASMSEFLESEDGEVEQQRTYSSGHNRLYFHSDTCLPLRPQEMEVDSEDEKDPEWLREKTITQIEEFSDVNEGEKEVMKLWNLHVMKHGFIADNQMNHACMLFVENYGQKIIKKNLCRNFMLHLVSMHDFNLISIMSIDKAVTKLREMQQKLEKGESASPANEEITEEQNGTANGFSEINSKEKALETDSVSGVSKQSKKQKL
Chain of PRC2 complex (EZH2 Y641F/EED/SUZ12/RbAp48/AEBP2) (Q09028 whole entry partner): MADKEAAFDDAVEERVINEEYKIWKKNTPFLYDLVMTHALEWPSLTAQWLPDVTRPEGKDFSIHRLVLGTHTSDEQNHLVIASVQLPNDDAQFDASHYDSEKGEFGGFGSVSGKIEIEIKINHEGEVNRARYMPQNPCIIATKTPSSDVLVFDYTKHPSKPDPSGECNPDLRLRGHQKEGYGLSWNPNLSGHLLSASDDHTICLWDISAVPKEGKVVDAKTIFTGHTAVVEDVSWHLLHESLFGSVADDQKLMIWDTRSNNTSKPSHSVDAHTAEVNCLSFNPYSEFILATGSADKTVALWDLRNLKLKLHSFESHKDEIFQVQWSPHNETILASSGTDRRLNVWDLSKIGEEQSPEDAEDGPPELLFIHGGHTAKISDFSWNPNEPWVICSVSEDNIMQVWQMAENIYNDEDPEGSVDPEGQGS
Chain of PRC2 complex (EZH2 Y641F/EED/SUZ12/RbAp48/AEBP2) (Q6ZN18 whole entry partner): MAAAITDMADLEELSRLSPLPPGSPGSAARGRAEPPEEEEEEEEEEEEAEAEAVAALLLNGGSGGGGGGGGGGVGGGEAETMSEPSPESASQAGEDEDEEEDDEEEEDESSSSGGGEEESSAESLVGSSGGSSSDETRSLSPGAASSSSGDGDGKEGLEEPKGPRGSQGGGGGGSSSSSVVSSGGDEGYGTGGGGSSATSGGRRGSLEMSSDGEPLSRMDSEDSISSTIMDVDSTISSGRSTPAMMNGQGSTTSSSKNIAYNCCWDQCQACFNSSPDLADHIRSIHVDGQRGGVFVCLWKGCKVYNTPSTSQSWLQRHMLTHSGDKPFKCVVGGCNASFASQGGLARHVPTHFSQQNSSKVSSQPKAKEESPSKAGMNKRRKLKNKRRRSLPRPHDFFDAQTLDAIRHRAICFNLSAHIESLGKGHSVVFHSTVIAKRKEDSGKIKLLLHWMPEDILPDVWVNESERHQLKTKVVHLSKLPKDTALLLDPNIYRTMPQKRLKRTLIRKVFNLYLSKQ
Conditions: not given
(Time-resolved FRET reads energy transfer from a long-lived donor to a nearby acceptor.)
As for `CCN(c1c(C)c(C(=O)NCc2c(C)cc(C)[nH]c2=O)cc2cccn12)C1CCOCC1` [Example 56, N-((4,6-dimethyl-2-oxo-1,2-dihydropyridin-3-yl)methyl)-6-methyl-5-(ethyl(tetrahydro-2H-pyran-4-yl)amino)indolizine-7-carboxamide], the IC50 (in general, the concentration at which inhibition is half-maximal) was below 0.1 µM.

The compound `CCN(c1c(C)c(C(=O)NCc2c(C)cc(C)[nH]c2=O)cc2cc(Br)cn12)C1CCOCC1` [Example 58, 2-bromo-N-((4,6-dimethyl-2-oxo-1,2-dihydropyridin-3-yl)methyl)-5-(ethyl(tetrahydro-2H-pyran-4-yl)amino)-6-methylindolizine-7-carboxamide] yielded an IC50 of 0.1 to 1 µM.

Take `CCN(c1c(C)c(C(=O)NCc2c(C)cc(C)[nH]c2=O)cc2cc(Br)cn12)C1CCN(C(C)=O)CC1` [Example 62, 5-((1-acetylpiperidin-4-yl)(ethyl)amino)-2-bromo-N-((4,6-dimethyl-2-oxo-1,2-dihydropyridine-3-yl)methyl)-6-methylindolizine-7-carboxamide]: the IC50 was below 0.1 µM.

With `Cc1cc(C)c(CNC(=O)c2cc3cncn3c(N(C)C3CCOCC3)c2C)c(=O)[nH]1` [Example 68, N-((4,6-dimethyl-2-oxo-1,2-dihydropyridin-3-yl)methyl)-6-methyl-5-(methyl(tetrahydro-2H-pyran-4-yl)amino)imidazo[1,5-a]pyridine-7-carboxamide], the IC50 is below 0.1 µM.

For `CCN(c1c(C)c(C(=O)NCc2c(C)cc(C)[nH]c2=O)cc2cc(-c3cn(C)cn3)cn12)C1CCOCC1` [Example 73, N-((4,6-dimethyl-2-oxo-1,2-dihydropyridin-3-yl)methyl)-5-(ethyl(tetrahydro-2H-pyran-4-yl)amino)-6-methyl-2-(1-methyl-1H-imidazol-4-yl)indolizin-7-carboxamide], the IC50 is below 0.1 µM.

Take `Cc1cc(C)c(CNC(=O)c2cc3cc(-c4nccn4C)cn3c(C(C)N3CCOCC3)c2C)c(=O)[nH]1` (stereo not drawn) [Example 79, N-((4,6-dimethyl-2-oxo-1,2-dihydropyridin-3-yl)methyl)-6-methyl-2-(1-methyl-1H-imidazole-2-yl)-5-(1-morpholinoethyl)indolizine-7-carboxamide]: the concentration for half-maximal inhibition (IC50) is below 0.1 µM.

The same assay, now with this note: read-out: IC50 (EZH2_Y641F); EZH2 Y641F PRC2 complex, HTRF; class symbols.
On to `CCN(c1c(C)c(C(=O)NCc2c(C)cc(C)[nH]c2=O)cc2cc(Br)cn12)C1CCOCC1` [Example 57], for which the IC50 was in the range of 0.1 to 1 µM.

`CCN(c1c(C)c(C(=O)NCc2c(C)cc(C)[nH]c2=O)cc2cc(Br)cn12)C1CNC1` [Example 59]: the IC50 was in the range of 1 to 10 µM.

On to `CCN(c1c(C)c(C(=O)NCc2c(C)cc(C)[nH]c2=O)cc2cc(Br)cn12)C1CCNCC1` [Example 61, 2-bromo-N-((4,6-dimethyl-2-oxo-1,2-dihydropyridin-3-yl)methyl)-5-(ethyl(piperidin-4-yl)amino)-6-methylindolizine-7-carboxamide], for which the IC50 was 0.1 to 1 µM.

Turning to `CCN(c1c(C)c(C(=O)NCc2c(C)cc(C)[nH]c2=O)cc2cc(-c3ccccc3)cn12)C1CCOCC1` [Example 63], the IC50 is 0.1 to 1 µM.

As for `CCN(c1c(C)c(C(=O)NCc2c(C)cc(C)[nH]c2=O)cc2cc(-c3ccnn3C)cn12)C1CCOCC1` [Example 64, N-((4,6-dimethyl-2-oxo-1,2-dihydropyridin-3-yl)methyl)-5-(ethyl(tetrahydro-2H-pyran-4-yl)amino)-6-methyl-2-(4-morpholinephenyl)indolizine-7-carboxamide], the half-inhibitory concentration (IC50) is 0.1 to 1 µM.

Take `CCN(c1c(C)c(C(=O)NCc2c(C)cc(C)[nH]c2=O)cc2cc(-c3ccnn3C)cn12)C1CCOCC1` [Example 65, N-((4,6-dimethyl-2-oxo-1,2-dihydropyridin-3-yl)methyl)-5-(ethyl(tetrahydro-2H-pyran-4-yl)amino)-6-methyl-2-(1-methyl-1H-pyrazol-5-yl)indolizin-7-carboxamide]: the half-maximal inhibitory concentration (IC50) was below 0.1 µM.

For the compound `CCN(c1c(C)c(C(=O)NCc2c(C)cc(C)[nH]c2=O)cc2cc(-c3cnn(C)c3)cn12)C1CCOCC1` [Example 66, N-((4,6-dimethyl-2-oxo-1,2-dihydropyridin-3-yl)methyl)-5-(ethyl(tetrahydro-2H-pyran-4-yl)amino)-6-methyl-2-(1-methyl-1H-pyrazol-4-yl)indolizin-7-carboxamide], the concentration for half-maximal inhibition (IC50) was below 0.1 µM.

Consider `CCN(c1c(C)c(C(=O)NCc2c(C)cc(C)[nH]c2=O)cc2cc(-c3nccs3)cn12)C1CCOCC1` [Example 67, N-((4,6-dimethyl-2-oxo-1,2-dihydropyridin-3-yl)methyl)-5-(ethyl(tetrahydro-2H-pyran-4-yl)amino)-6-methyl-2-(thiazol-2-yl)indolizin-7-carboxamide], for which the IC50 is 0.1 to 1 µM.

On to `Cc1cc(C)c(CNC(=O)c2cc3cc(Cl)cn3c(C(C)N3CCOCC3)c2C)c(=O)[nH]1` (stereo not drawn) [Example 69, 2-chloro-N-((4,6-dimethyl-2-oxo-1,2-dihydropyridin-3-yl)methyl)-6-methyl-5-(1-morphinolinylethyl)indolizine-7-carboxamide], for which the IC50 is below 0.1 µM.

For the compound `Cc1cc(C)c(CNC(=O)c2cc3cc(Cl)cn3c(C(C)N3CCC(N(C)C)CC3)c2C)c(=O)[nH]1` (stereo not drawn) [Example 70], the IC50 is below 0.1 µM.

Regarding `Cc1cc(C)c(CNC(=O)c2cc3cncn3c(C(C)N3CCOCC3)c2C)c(=O)[nH]1` (stereo not drawn) [Example 71, N-((4,6-dimethyl-2-oxo-1,2-dihydropyridin-3-yl)methyl)-6-methyl-5-(1-morphinolinylethyl)imidazo[1,5-a]pyridine-7-carboxamide], the IC50 is below 0.1 µM.

For `Cc1cc(C)c(CNC(=O)c2cc3cc(-c4ccn(C)n4)cn3c(C(C)N3CCC(N(C)C)CC3)c2C)c(=O)[nH]1` (stereo not drawn) [Example 76], the half-inhibitory concentration (IC50) was in the range of 0.1 to 1 µM.

Consider `Cc1cc(C)c(CNC(=O)c2cc3cc(-c4ccn(C)n4)cn3c(C(C)N3CCC(N(C)C)CC3)c2C)c(=O)[nH]1` (stereo not drawn) [Example 77, N-((4,6-dimethyl-2-oxo-1,2-dihydropyridin-3-yl)methyl)-5-(1-(4-(dimethylamino)piperidine-1-yl)ethyl)-6-methyl-2-(1-methyl-1H-pyrazol-3-yl)indolizin-7-carboxamide], for which the 50% inhibitory concentration (IC50) was below 0.1 µM.

For the compound `Cc1cc(C)c(CNC(=O)c2cc3cc(-c4cccc(CN5CCOCC5)c4)cn3c(C(C)N3CCOCC3)c2C)c(=O)[nH]1` (stereo not drawn) [Example 80, N-((4,6-dimethyl-2-oxo-1,2-dihydropyridin-3-yl)methyl)-5-(1-morpholine-1-ethyl)-6-methyl-2-(3-(morpholinemethylene)phenyl)indolizin-7-amide], the IC50 was in the range of 0.1 to 1 µM.

For the compound `Cc1cc(C)c(CNC(=O)c2cc3c(-c4ccccc4)ccn3c(C(C)N3CCOCC3)c2C)c(=O)[nH]1` (stereo not drawn) [Example 81], the IC50 is below 0.1 µM.

Regarding `Cc1cc(C)c(CNC(=O)c2cc3c(-c4ccccc4)ccn3c(C(C)N3CCOCC3)c2C)c(=O)[nH]1` (stereo not drawn) [Example 82, N-((4,6-dimethyl-2-oxo-1,2-dihydropyridin-3-yl)methyl)-6-methyl-5-(1-morphinolinylethyl)-1-phenylindolizine-7-carboxamide], the IC50 was below 0.1 µM.

As to `COc1cc(C)[nH]c(=O)c1CNC(=O)c1cc2cc(-c3ccnn3C)cn2c(C(C)N2CCN(CC(F)(F)F)CC2)c1C` (stereo not drawn) [Example 83, N-((4-methoxy-6-methyl-2-oxo-1,2-dihydropyridin-3-yl)methyl)-6-methyl-2-(1-methyl-1H-pyrazol-5-yl)-5-(1-(4-(2,2,2-trifluoroethyl)piperazin-1-yl)ethyl)indolizine-7-carboxamide], the 50% inhibitory concentration (IC50) was below 0.1 µM.

With `Cc1cc(C)c(CNC(=O)c2cc3cc(-c4ccnn4C)cn3c(C(C)N3CCN(CC(F)(F)F)CC3)c2C)c(=O)[nH]1` (stereo not drawn) [Example 84, N-((4,6-dimethyl-2-oxo-1,2-dihydropyridin-3-yl)methyl)-6-methyl-2-(1-methyl-1H-pyrazole-5-yl)-5-(1-(4-(2,2,2-trifluoroethyl)piperazin-1-yl)ethyl)indolizine-7-carboxamide], the 50% inhibitory concentration (IC50) lay in the range of 0.1 to 1 µM.

For the compound `Cc1cc(C)c(CNC(=O)c2cc3cc(-c4ccn(C)n4)cn3c(C(C)N3CCOCC3)c2C)c(=O)[nH]1` (stereo not drawn) [Example 85, N-((4,6-dimethyl-2-oxo-1,2-dihydropyridin-3-yl)methyl)-6-methyl-2-(1-methyl-1H-pyrazole-3-yl)-5-(1-morpholinoethyl)indolizine-7-carboxamide], the 50% inhibitory concentration (IC50) was in the range of 0.1 to 1 µM.

Take `Cc1cc(C)c(CNC(=O)c2cc3cc(-c4cncn4C)cn3c(C(C)N3CCOCC3)c2C)c(=O)[nH]1` (stereo not drawn) [Example 86, N-((4,6-dimethyl-2-oxo-1,2-dihydropyridin-3-yl)methyl)-6-methyl-2-(1-methyl-1H-imidazole-5-yl)-5-(1-morpholinoethyl)indolizine-7-carboxamide]: the IC50 was below 0.1 µM.

With `Cc1cc(C)c(CNC(=O)c2cc3cc(-c4ccc(N)nc4)cn3c(C(C)N3CCOCC3)c2C)c(=O)[nH]1` (stereo not drawn) [Example 89, 2-(6-aminopyridin-3-yl)-N-((4,6-dimethyl-2-oxo-1,2-dihydropyridin-3-yl)methyl)-6-methyl-5-(1-morpholinylethyl)indolizine-7-amide], the IC50 is below 0.1 µM.

As for `Cc1cc(C)c(CNC(=O)c2cc3cc(-c4ccc(N5CCNCC5)nc4)cn3c(C(C)N3CCOCC3)c2C)c(=O)[nH]1` (stereo not drawn) [Example 90, N-((4,6-dimethyl-2-oxo-1,2-dihydropyridin-3-yl)methyl)-6-methyl-5-(1-morpholinoethyl)-2-(6-(piperazin-1-yl)pyridin-3-yl)indolizine-7-carboxamide], the IC50 is 1 to 10 µM.

Take `Cc1cc(C)c(CNC(=O)c2cc3cc(-c4ccc(N5CCN(C)CC5)nc4)cn3c(C(C)N3CCOCC3)c2C)c(=O)[nH]1` (stereo not drawn) [Example 91]: the concentration for half-maximal inhibition (IC50) was below 0.1 µM.

On to `COc1cc(-c2cc3cc(C(=O)NCc4c(C)cc(C)[nH]c4=O)c(C)c(C(C)N4CCC(N(C)C)CC4)n3c2)cc(OC)c1OC` (stereo not drawn) [Example 92, N-((4,6-dimethyl-2-oxo-1,2-dihydropyridin-3-yl)methyl)-5-(1-(4-(dimethylamino)piperidine-1-yl)ethyl)-6-methyl-2-(3,4,5-trimethoxyphenyl)-indolizine-7-carboxamide], for which the half-inhibitory concentration (IC50) is below 0.1 µM.

(Values after patent publication US10968215B2 (SHANGHAI HAIHE PHARMACEUTICAL CO., LTD., priority 2016, dated 2021).)
